Data: patent US5690959A, “Pharmaceutical thermal infusion process” (priority 1993, dated 1997)
Where a name gives a salt, the structure may show the parent alone.

How the values were obtained:
[1] = Degradation of clavulanate on thermal infusion; format: physicochemical
[2] = cited from earlier work
[3] = cited from earlier work; remark: listed apart in the source

SMILES | degradation of clavulanate ([1]; more appropriate thermal infusion temperature) | degradation of clavulanate ([1]; thermal infusion at the more extreme temperatures) | solubility in water [2] | hydrolytic degradation ([3]; contacted by water) | spontaneous exothermic reaction ([3]; transport in bulk)
O=C(O)[C@H]1/C(=C/CO)O[C@@H]2CC(=O)N21 [clavulanate] | eliminates the degradation | minimal degree of degradation | highly water soluble |  | 
CN/C(=N/CCSCc1nc[nH]c1C)NC#N [Cimetidine, N"-cyano-N-methyl-N'-[2-[[(5-methyl-1-H-imidazol-4-yl)methyl]thio]-ethyl]-guanidine] |  |  | moderately soluble in water |  | 
O=C(O)[C@H]1/C(=C/CO)O[C@@H]2CC(=O)N21 [salts of clavulanic acid, Z-(3R,5R)-2-(β-hydroxyethyldiene) clavam-3-carboxylate] |  |  | freely water soluble | undergo spontaneous hydrolytic degradation when contacted by water | undergo a spontaneous exothermic reaction with the release of large quantities of gas and fumes
